The values below come from patent publication EP0922101B1, “EGF-LIKE FACTOR FROM CHROMAFFIN GRANULES AND GLIA CELL-DERIVED NEUROTROPHIC FACTOR WITH SURVIVAL-PROMOTING ACTIVITY ON DAERGIC NEURONS” (BIOPHARM Gesellschaft zur biotechnologischen Entwicklung …, priority 1996, dated 1998).

Data set [1] concerns mesencephalic DAergic neurons. Kind of data set: Survival of TH-positive DAergic neurons in dissociated E14 ventral mesencephalic cell cultures (TH immunocytochemistry, cell counts). In kind it is cell-based, rat. The settings on record: for survival promoting activity: concentrations up to 100 ng/ml, treated for 7 days; for effect on survival promoting effect of chromaffin granule protein: 30 µM in combination with chromaffin granule protein 1:50, DIV1-DIV8; for basal survival of TH-immunoreactive neurons: 30 µM, control cultures, DIV8. As to the method:
(§1) Tissue culture. Mesencephalic cell cultures were essentially established as described by Krieglstein and Unsicker (1994). In brief, the ventral midbrain floor was dissected from embryonic day (E) 14 Wistar rat fetuses of two litters (20-25 embryos) and collected in CMF. Tissue pieces were enzymatically dissociated using 0.25% trypsin (BioWhittaker) in CMF for 15 min at 37°C. After addition of an equal volume of ice-cold horse serum and 1mg DNAse, Cells were triturated with fire-polished and siliconized pasteur pipettes and subsequently washed with DMEM/F12. The single cell suspension (100µl) was seeded on polyornithine (0.1 mg/ml in 15mM borate buffer, pH 8.4, Sigma)-laminin (5µg/ml; Sigma) coated glass cover slips at a density of 200.000 cells/cm^2. Coverslips were incubated in a humified 5% CO2/95% air atmosphere to allow cells to attach. After two hours coverslips were transferred to 24-well plates (Falcon) containing 750 µl medium. On the following day, and subsequently every three days, 500 µl of the medium was replaced and neurotrophic factors were added at the same time at the given concentrations.
Immunocytochemistry. To identify DAergic or serotinergic neurons cells were visualized using antibodies aginst tyrosine hydroxylase (TH), or serotonin, respectively. Cells were fixed with 4% paraformaldehyde buffered in phosphate buffered saline (PBS) for 10 min at room temperature, permeabilized with acetone at -20°C for 10 min and washed with (PBS). After blocking with 1% H2O2 in PBS, followed by 1 % horse serum, coverslips were stained with a monoclonal antibody to rat TH (1:200; Boehringer Mannheim; diluted in 1 % horse serum) or with an antibody against serotonin (1:50; DAKO) for 1 h at 37°C. Specific staining was vizualized using the anti-mouse Vectastain ABC kit in combination with DAB (Camon, Germany). For glial fibrillary acidic protein (GFAP) immunocytochemistry, cells were fixed and permeabilized using aceton at -20°C for 20 min, then washed with PBS and incubated with a monoclonal antibody against GFAP (1:100; Sigma) for 1 h at 37°C. As a secondary antibody TRITC anti-mouse-IgG was used. To monitor cell proliferation bromodesoxyuridine (BrdU) was added to the culture, 24 hours prior fixation, at a final concentration of 10 µM. Cells were washed twice with PBS and fixed with 70% ethanol buffered with 50 mM glycine, pH 2.0, for 20 min at -20°C. Incorporated BrdU was identified using anti-BrdU detection Kit I (Boehringer, Mannheim). BrdU/TH double detection was achieved by first applying the protocol for BrdU followed after another five washes with PBS and by the procedure for TH staining using TRITC anti-mouse-IgG as a secondary antibody. Nuclei were stained with propidium iodide (20 s, 0.1µg/ml). Coverslips were mounted using Aquatex (Merck, Darmstadt).
Evaluation of cell numbers. Survival of DAergic neurons was evaluated by counting all TH-positive neurons in one diagonal strips of the coverslip using 100-fold magnification. This area corresponded to 12% of the total area. Quantification was done in triplicate and in at least two independent experiments. The number of GFAP-positive cells were assessed likewise.

Data set [2] concerns GFAP-positive astroglial cells. Kind of data set: Induction of GFAP-positive astroglial cells in E14 mesencephalic cell cultures (GFAP immunocytochemistry). In kind it is cell-based, rat. As to the method: as §1
Immunocytochemistry. To identify DAergic or serotinergic neurons cells were visualized using antibodies aginst tyrosine hydroxylase (TH), or serotonin, respectively. Cells were fixed with 4% paraformaldehyde buffered in phosphate buffered saline (PBS) for 10 min at room temperature, permeabilized with acetone at -20°C for 10 min and washed with (PBS). After blocking with 1% H2O2 in PBS, followed by 1 % horse serum, coverslips were stained with a monoclonal antibody to rat TH (1:200; Boehringer Mannheim; diluted in 1 % horse serum) or with an antibody against serotonin (1:50; DAKO) for 1 h at 37°C. Specific staining was vizualized using the anti-mouse Vectastain ABC kit in combination with DAB (Camon, Germany). For glial fibrillary acidic protein (GFAP) immunocytochemistry, cells were fixed and permeabilized using aceton at -20°C for 20 min, then washed with PBS and incubated with a monoclonal antibody against GFAP (1:100; Sigma) for 1 h at 37°C. As a secondary antibody TRITC anti-mouse-IgG was used. […]
Evaluation of cell numbers. Survival of DAergic neurons was evaluated by counting all TH-positive neurons in one diagonal strips of the coverslip using 100-fold magnification. […] Quantification was done in triplicate and in at least two independent experiments. The number of GFAP-positive cells were assessed likewise.
In an initial series of experiments the chromaffin granule-derived activity is analyzed by specifically blocking its putative receptor pathway. […] When cultures were treated with TGF-α, a physiological EGFR ligand in the CNS, or EGF (10 ng/ml), only few GFAP-positive astroglial cells could be detected (Fig. 12). […]

In another data set the target is p185^c-erbB2 (Homo sapiens, UniProt P04626). Particulars: cited from earlier work.
Sequence of p185^c-erbB2 (P04626 23-1255): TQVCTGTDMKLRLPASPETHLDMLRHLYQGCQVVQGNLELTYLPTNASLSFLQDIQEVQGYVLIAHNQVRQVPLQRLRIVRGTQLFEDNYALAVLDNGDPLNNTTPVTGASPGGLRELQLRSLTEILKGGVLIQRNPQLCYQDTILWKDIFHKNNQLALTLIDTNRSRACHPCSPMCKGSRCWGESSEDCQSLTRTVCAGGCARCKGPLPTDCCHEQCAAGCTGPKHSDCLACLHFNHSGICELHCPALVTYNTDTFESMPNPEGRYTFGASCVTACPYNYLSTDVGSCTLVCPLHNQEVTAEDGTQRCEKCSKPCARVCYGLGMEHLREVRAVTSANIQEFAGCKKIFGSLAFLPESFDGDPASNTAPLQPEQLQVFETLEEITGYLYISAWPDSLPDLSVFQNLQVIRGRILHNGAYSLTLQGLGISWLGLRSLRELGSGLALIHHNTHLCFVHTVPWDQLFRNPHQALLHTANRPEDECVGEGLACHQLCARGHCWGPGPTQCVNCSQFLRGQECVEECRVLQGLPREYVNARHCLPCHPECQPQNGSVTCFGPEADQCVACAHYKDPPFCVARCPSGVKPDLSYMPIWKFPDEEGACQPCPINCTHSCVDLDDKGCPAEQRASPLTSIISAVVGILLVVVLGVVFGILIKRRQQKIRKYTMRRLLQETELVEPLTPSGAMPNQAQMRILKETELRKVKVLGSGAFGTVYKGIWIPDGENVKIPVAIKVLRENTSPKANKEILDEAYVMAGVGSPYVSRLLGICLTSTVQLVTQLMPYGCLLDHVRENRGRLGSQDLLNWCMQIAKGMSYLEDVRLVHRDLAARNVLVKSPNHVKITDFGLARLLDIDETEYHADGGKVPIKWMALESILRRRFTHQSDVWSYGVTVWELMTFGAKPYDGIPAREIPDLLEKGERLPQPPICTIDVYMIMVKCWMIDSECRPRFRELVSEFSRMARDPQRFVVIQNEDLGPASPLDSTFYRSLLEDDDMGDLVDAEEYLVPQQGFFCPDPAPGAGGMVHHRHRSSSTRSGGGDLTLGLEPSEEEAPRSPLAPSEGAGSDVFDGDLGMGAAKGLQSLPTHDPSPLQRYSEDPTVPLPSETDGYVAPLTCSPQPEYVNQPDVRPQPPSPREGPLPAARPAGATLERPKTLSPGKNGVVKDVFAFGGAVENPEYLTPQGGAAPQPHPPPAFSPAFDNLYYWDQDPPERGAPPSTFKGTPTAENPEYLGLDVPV
A further data set concerns the target EGFR kinase (Homo sapiens, UniProt P00533). Particulars: EGFR kinase autophosphorylation; cited from earlier work.
In the next data set the target is HER1-2-kinase. Particulars: HER1-2-kinase autophosphorylation; cited from earlier work.
Where [3] appears, read: 10µM with chromaffin granule protein 1:50, six days.

Entries after “also recorded” stand apart in the source; their conditions may differ.

Sequence of EGFR kinase (P00533 25-1210): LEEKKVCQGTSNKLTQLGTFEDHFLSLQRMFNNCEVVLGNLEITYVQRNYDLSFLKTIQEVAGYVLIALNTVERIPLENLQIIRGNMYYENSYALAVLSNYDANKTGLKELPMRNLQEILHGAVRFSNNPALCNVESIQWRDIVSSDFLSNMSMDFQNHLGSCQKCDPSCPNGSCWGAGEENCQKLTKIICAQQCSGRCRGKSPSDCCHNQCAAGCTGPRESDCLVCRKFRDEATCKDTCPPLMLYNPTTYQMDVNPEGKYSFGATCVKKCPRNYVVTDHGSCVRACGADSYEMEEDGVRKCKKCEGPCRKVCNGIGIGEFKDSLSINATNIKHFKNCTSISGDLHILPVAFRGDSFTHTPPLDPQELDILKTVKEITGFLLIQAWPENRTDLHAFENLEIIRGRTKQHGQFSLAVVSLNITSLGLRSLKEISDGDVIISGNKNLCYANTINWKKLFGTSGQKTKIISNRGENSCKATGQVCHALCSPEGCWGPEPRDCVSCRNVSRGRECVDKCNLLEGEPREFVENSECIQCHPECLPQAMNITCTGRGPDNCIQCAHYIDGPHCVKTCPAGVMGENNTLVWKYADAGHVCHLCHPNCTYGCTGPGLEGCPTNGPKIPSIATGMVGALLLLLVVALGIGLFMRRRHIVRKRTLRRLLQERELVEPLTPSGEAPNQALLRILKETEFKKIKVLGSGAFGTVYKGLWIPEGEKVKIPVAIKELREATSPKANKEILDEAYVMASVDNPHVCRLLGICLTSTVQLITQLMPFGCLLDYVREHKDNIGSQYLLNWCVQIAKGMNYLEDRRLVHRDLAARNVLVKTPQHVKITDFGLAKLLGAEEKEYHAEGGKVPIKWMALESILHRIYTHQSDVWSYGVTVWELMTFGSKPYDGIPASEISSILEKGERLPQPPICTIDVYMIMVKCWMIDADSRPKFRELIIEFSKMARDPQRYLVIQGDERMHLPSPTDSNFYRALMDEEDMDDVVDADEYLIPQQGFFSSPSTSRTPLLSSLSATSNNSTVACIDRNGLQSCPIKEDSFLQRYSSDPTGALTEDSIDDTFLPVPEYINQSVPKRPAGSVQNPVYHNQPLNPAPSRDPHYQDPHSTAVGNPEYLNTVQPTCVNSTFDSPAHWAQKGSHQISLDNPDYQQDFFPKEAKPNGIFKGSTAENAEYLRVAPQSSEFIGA

Consider `C[N+](C)(C)CCOC(N)=O` [carbachol], for which the “survival of TH-positive neurons” value in data set [1] (culture medium containing carbachol (10^-5 M), DIV 8) is on record as “uneffective”.
In the case of `O=C1NC(=O)c2cc(Nc3ccccc3)c(Nc3ccccc3)cc21` [DAPH, 4,5-Dianilinophthalimide], in data set [1] (setting [3]), the “effect on survival of DAergic neurons induced by chromaffin granule activity” value is given as “inhibited”. Besides, the “effect on FGF-2-mediated induction of astroglial cells” value in data set [2] (10 µM with FGF-2 at 10 ng/ml, DIV 6) is recorded as “could not be affected by this inhibitor”. In addition, in data set [2] (setting [3]), the “effect on appearence of astroglial cell induced by the chromaffin granule activity” value is on record as “inhibited”. Further, in data set [2] (10 µM, DIV 6), the “effect on appearance of GFAP-positive astroglial cells in TGF-α or EGF treated cultures” value is on record as “effectively blocked”. Besides, at p185^c-erbB2, the “p185^c-erbB2 autophosphorylation” value is “inhibits”.
On to neuropeptide Y, for which the survival promoting activity entry in data set [1] is on record as “none of these neuropeptides had any survival promoting activity”.
Consider Leu-enkephalin, for which the survival promoting activity result in data set [1] was “none of these neuropeptides had any survival promoting activity”.
The same measure, in the same setting: the result for Met-enkephalin reads “none of these neuropeptides had any survival promoting activity”.
By IC50 is commonly meant the concentration that inhibits the measured activity by half. Turning to `N#C/C(=C\c1ccc(O)c(O)c1)C(=O)NCCCCc1ccccc1` [Tyrphostin B56], the “effect on chromaffin granule protein-induced appearence of astroglial cells” value in data set [2] (10µM Tyrphostin B56 with chromaffin granule protein 1:50) is recorded as “successfully inhibited; also recorded: fully blocked the effect of granule protein on mesencephalic glia”. Moreover, the results for the IC50 at EGFR kinase and on HER1-2-kinase were 5 µM and more than 500 µM, respectively.
Consider `O=c1[nH]c(=O)n([C@H]2C[C@H](O)[C@@H](CO)O2)cc1F` [FDUR, 5-fluorodeoxyuridine], for which, in data set [1], the “effect on survival promoting effect of chromaffin granule protein” value was “abolished the survival promoting affect of chromaffin granule protein” and the “basal survival of TH-immunoreactive neurons” value was “without affecting basal survival”.
`NC(CCCC(=O)O)C(=O)O` (stereo not drawn) [AA, α-aminoadipic acid]: in data set [1], the “effect on survival promoting effect of chromaffin granule protein” value is listed as “abolished the survival promoting affect of chromaffin granule protein” and the “basal survival of TH-immunoreactive neurons” value was “without affecting basal survival”.
